In patent US20250171423A1, “PHARMACEUTICAL COMPOUNDS FOR THE TREATMENT OF COMPLEMENT MEDIATED DISORDERS” (Achillion Pharmaceuticals, Inc., priority 2020, published 2025):

Target: T1, Human complement C1s enzyme (Homo sapiens, UniProt P09871)
T1 construct: purified from human serum, Complement Technology, Inc; purchased Complement Technology, Inc; host or cells: human serum
T1 sequence (P09871 438-688 limits assumed): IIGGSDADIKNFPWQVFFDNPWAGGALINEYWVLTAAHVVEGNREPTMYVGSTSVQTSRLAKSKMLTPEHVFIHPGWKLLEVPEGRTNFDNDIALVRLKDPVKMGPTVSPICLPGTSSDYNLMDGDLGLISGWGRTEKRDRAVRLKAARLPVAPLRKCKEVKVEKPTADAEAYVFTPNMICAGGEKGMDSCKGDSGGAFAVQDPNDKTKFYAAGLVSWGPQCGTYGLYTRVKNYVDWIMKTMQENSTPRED
T1 sequence (P09871 16-437 partner limits assumed): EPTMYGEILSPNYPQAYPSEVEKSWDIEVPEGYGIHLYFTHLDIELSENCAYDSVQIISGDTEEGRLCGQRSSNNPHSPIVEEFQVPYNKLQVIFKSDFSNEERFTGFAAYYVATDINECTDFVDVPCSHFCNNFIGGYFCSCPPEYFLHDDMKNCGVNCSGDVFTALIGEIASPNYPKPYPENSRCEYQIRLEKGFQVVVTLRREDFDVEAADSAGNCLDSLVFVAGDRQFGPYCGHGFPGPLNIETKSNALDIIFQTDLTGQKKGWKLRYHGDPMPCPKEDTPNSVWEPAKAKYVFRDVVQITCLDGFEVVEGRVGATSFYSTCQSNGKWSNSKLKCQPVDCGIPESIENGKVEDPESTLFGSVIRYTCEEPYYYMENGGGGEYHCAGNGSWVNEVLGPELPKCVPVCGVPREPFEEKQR
Assay: Human C1s Enzyme Assay
Assay type: biochemical
Details: human C1s 1.16 nM, 5 min preincubation, substrate Z-L-Lys-SBzl 100 μM, A405; read-out: C1s Protease Activity
In short: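 IC50 values were fitted by nonlinear regression to rates measured as A405 every 30 s for 30 min. The thioester substrate Z-L-Lys-SBzl and Ellman's reagent were each at 100 μM. Serum-derived C1s at 1.16 nM final had 5 min of room-temperature preincubation with compound (pH 7.5 Tris buffer, 1 M NaCl).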

IC50 [nM]	Structure (SMILES)
< 100	CC(C)O[C@@H]1C[C@@H](C(=O)NCc2cc(C(=N)N)cs2)N(C(=O)CNC(=O)c2ccc(Oc3ccccc3)cc2)C1 [Compound 138, (2S,4R)-N-((4-carbamimidoylthiophen-2-yl)methyl)-4-isopropoxy-1-((4-phenoxybenzoyl)glycyl)pyrrolidine-2-carboxamide]
100 to 1000	C[C@@]12C[C@@H]1N(C(=O)CNC(=O)c1ccc(Oc3ccccc3)cc1)[C@H](C(=O)NCc1ccc(C(=N)N)cn1)C2 [Compound 4]
< 100	CO[C@@H]1C[C@@H](C(=O)N[C@H](C)c2cc(C(=N)N)cs2)N(C(=O)CNC(=O)CCCOc2ccccc2)C1 [Compound 106, (2S,4R)-N-((R)-1-(4-carbamimidoylthiophen-2-yl)ethyl)-4-methoxy-1-((4-phenoxy-butanoyl)glycyl)pyrrolidine-2-carboxamide]
< 100	C[C@@H](NC(=O)[C@@H]1C[C@@H](OC(F)F)CN1C(=O)CNC(=O)CCCOc1ccccc1)c1cc(C(=N)N)cs1 [Compound 123, (2S,4R)-N-((R)-1-(4-carbamimidoylthiophen-2-yl)ethyl)-4-(difluoromethoxy)-1-((4-phenoxybutanoyl)glycyl)pyrrolidine-2-carboxamide]
100 to 1000	C[C@@]12C[C@@H]1N(C(=O)CNC(=O)c1ccc(Oc3ccccc3)cc1)[C@H](C(=O)N1CCc3c(C(=N)N)csc3C1)C2 [Compound 112, N-(2-((1S,3S,5S)-3-(3-carbamimidoyl-4,5,6,7-tetrahydrothieno[2,3-c]pyridine-6-carbonyl)-5-methyl-2-azabicyclo[3.1.0]hexan-2-yl)-2-oxoethyl)-4-phenoxybenzamide]
< 100	N=C(N)c1csc(CNC(=O)[C@@H]2CC3(CN2C(=O)CNC(=O)CCCOc2ccnc(F)c2)OCCO3)c1 [Compound 206, (S)-N-((4-carbamimidoylthiophen-2-yl)methyl)-7-((4-((2-fluoropyridin-4-yl)oxy)butanoyl)glycyl)-1,4-dioxa-7-azaspiro[4.4]nonane-8-carboxamide]
< 100	N=C(N)c1csc(CNC(=O)[C@@H]2C[C@@H](c3ccccc3)CN2C(=O)CNC(=O)CCCOc2ccccc2)c1 [Compound 156, (2S,4S)-N-((4-carbamimidoylthiophen-2-yl)methyl)-1-((4-phenoxybutanoyl)glycyl)-4-phenylpyrrolidine-2-carboxamide]
> 1000	C[C@@]12C[C@@H]1N(C(=O)CNC(=O)c1ccc(Oc3ccccc3)cc1)[C@H](C(=O)NC1CCc3c(C(=N)N)csc3C1)C2 (stereo partly drawn) [Compound 258, (1S,3S,5S)-N-(3-carbamimidoyl-4,5,6,7-tetrahydrobenzo[b]thiophen-6-yl)-5-methyl-2-((4-phenoxybenzoyl)glycyl)-2-azabicyclo[3.1.0]hexane-3-carboxamide]
< 100	N=C(N)c1csc(CNC(=O)[C@@H]2C[C@@H](C(F)F)CN2C(=O)CNC(=O)c2ccc(Oc3ccccc3)cc2)c1 [Compound 151, (2S,4R)-N-((4-carbamimidoylthiophen-2-yl)methyl)-4-(difluoromethyl)-1-((4-phenoxybenzoyl)glycyl)pyrrolidine-2-carboxamide]
< 100	C[C@@]12C[C@@H]1N(C(=O)CNC(=O)c1ccc(Oc3ccccc3)cc1)[C@H](C(=O)NCCc1cc(C(=N)N)cs1)C2 [Compound 52, (1S,3S,5S)-N-(2-(4-carbamimidoylthiophen-2-yl)ethyl)-5-methyl-2-((4-phenoxy-benzoyl)glycyl)-2-azabicyclo[3.1.0]hexane-3-carboxamide]
100 to 1000	CC1(C)SCN(C(=O)CNC(=O)CCCOc2ccccc2)[C@@H]1C(=O)NCc1cc(C(=N)N)cs1 [Compound 124, (R)-N-((4-carbamimidoylthiophen-2-yl)methyl)-5,5-dimethyl-3-((4-phenoxybutanoyl)glycyl)thiazolidine-4-carboxamide]
100 to 1000	CO[C@H]1[C@@H](C(=O)NCc2cc(C(=N)N)cs2)N(C(=O)CNC(=O)CCCOc2ccccc2)C[C@@H]1F [Compound 113, (2S,3S,4S)-N-((4-carbamimidoylthiophen-2-yl)methyl)-4-fluoro-3-methoxy-1-((4-phenoxybutanoyl)glycyl)pyrrolidine-2-carboxamide]
< 100	C[C@@]12C[C@@H]1N(C(=O)CNC(=O)c1ccc(C3(c4ccccc4)COC3)cc1)[C@H](C(=O)NCc1cc(C(=N)N)cs1)C2 [Compound 168, (1S,3S,5S)-N-((4-carbamimidoylthiophen-2-yl)methyl)-5-methyl-2-((4-(3-phenyloxetan-3-yl)benzoyl)glycyl)-2-azabicyclo[3.1.0]hexane-3-carboxamide]
< 100	Cc1ccccc1[C@H]1C[C@@H](C(=O)N[C@H](C)c2cc(C(=N)N)cs2)N(C(=O)CNC(=O)c2ccc(Oc3ccccc3)cc2)C1 [Compound 238, (2S,4R)-N-((R)-1-(4-carbamimidoylthiophen-2-yl)ethyl)-1-((4-phenoxybenzoyl)glycyl)-4-(o-tolyl)pyrrolidine-2-carboxamide]
< 100	CC(CCOc1ccccc1)C(=O)NCC(=O)N1CC2(C[C@H]1C(=O)NCc1cc(C(=N)N)cs1)OCCO2 (stereo partly drawn) [Compound 88, (8S)-N-((4-carbamimidoylthiophen-2-yl)methyl)-7-((2-methyl-4-phenoxybutanoyl)glycyl)-1,4-dioxa-7-azaspiro[4.4]nonane-8-carboxamide]
< 100	N=C(N)c1csc([C@H](CO)NC(=O)[C@@H]2C[C@@H](OC(F)F)CN2C(=O)CNC(=O)c2ccc(Oc3ccccc3)cc2)c1 [Compound 198, (2S,4R)-N-((S)-1-(4-carbamimidoylthiophen-2-yl)-2-hydroxyethyl)-4-(difluoromethoxy)-1-((4-phenoxybenzoyl)glycyl)pyrrolidine-2-carboxamide]
< 100	N=C(N)c1csc(CNC(=O)[C@@H]2C[C@H](C3CCCCC3)CN2C(=O)CNC(=O)c2ccc(Oc3ccccc3)cc2)c1 [Compound 73, (2S,4R)-N-((4-carbamimidoylthiophen-2-yl)methyl)-4-cyclohexyl-1-((4-phenoxy-benzoyl)glycyl)pyrrolidine-2-carboxamide]
< 100	CC(C)O[C@@H]1C[C@@H](C(=O)N[C@H](C)c2cc(C(=N)N)cs2)N(C(=O)CNC(=O)CCCOc2ccccc2)C1 [Compound 166, (2S,4R)-N-((R)-1-(4-carbamimidoylthiophen-2-yl)ethyl)-4-isopropoxy-1-((4-phenoxybutanoyl)glycyl)pyrrolidine-2-carboxamide]
< 100	N=C(N)c1csc(CNC(=O)[C@@H]2CC3(CN2C(=O)CNC(=O)CCCOc2ccc(C4CC4)cc2)OCCO3)c1 [Compound 208, (S)-N-((4-carbamimidoylthiophen-2-yl)methyl)-7-((4-(4-cyclopropylphenoxy)butanoyl)glycyl)-1,4-dioxa-7-azaspiro[4.4]nonane-8-carboxamide]
> 1000	COc1cccc(CNC(=O)[C@@H]2C[C@]3(C)C[C@@H]3N2C(=O)CNC(=O)c2ccc(Oc3ccccc3)cc2)c1 [Compound 42, (1S,3S,5S)-N-(3-methoxybenzyl)-5-methyl-2-((4-phenoxybenzoyl)-glycyl)-2-azabicyclo[3.1.0]hexane-3-carboxamide]
< 100	N=C(N)c1csc(CNC(=O)[C@@H]2C[C@]3(CCO3)CN2C(=O)CNC(=O)c2ccc(Oc3ccccc3)cc2)c1 [Compound 195, (4S,7S)-N-((4-carbamimidoylthiophen-2-yl)methyl)-6-((4-phenoxybenzoyl)glycyl)-1-oxa-6-azaspiro[3.4]octane-7-carboxamide]
100 to 1000	N=C(N)c1csc(CNC(=O)[C@@H]2CC[C@@H]3CC[C@H](NC(=O)c4ccc(Oc5ccccc5)cc4)C(=O)N32)c1 [Compound 211, (3S,6S,8aS)-N-((4-carbamimidoylthiophen-2-yl)methyl)-5-oxo-6-(4-phenoxybenzamido)octahydroindolizine-3-carboxamide]

Structure (SMILES)	IC50 [nM]
CCOC(=O)c1ccc(OCCCC(=O)NCC(=O)N2[C@H]3C[C@@]3(C)C[C@H]2C(=O)NCc2cc(C(=N)N)cs2)cc1 [Compound 79, Ethyl 4-(4-((2-((1S,3S,5S)-3-(((4-carbamimidoylthiophen-2-yl)methyl)carbamoyl)-5-methyl-2-azabicyclo[3.1.0]hexan-2-yl)-2-oxoethyl)amino)-4-oxobutoxy)benzoate]	< 100
C[C@@]12C[C@@H]1N(C(=O)CNC(=O)CCCOc1ccccc1C(=O)O)[C@H](C(=O)NCc1cc(C(=N)N)cs1)C2 [Compound 186, 2-(4-((2-((1S,3S,5S)-3-(((4-carbamimidoylthiophen-2-yl)methyl)carbamoyl)-5-methyl-2-azabicyclo[3.1.0]hexan-2-yl)-2-oxoethyl)amino)-4-oxobutoxy)benzoic acid]	< 100
C[C@@]12C[C@@H]1N(C(=O)CNC(=O)CCCOc1ccc(C(=O)O)cc1)[C@H](C(=O)NCc1cc(C(=N)N)cs1)C2 [Compound 80, 4-(4-((2-((1S,3S,5S)-3-(((4-carbamimidoylthiophen-2-yl)methyl)carbamoyl)-5-methyl-2-azabicyclo[3.1.0]hexan-2-yl)-2-oxoethyl)amino)-4-oxobutoxy)benzoic acid]	100 to 1000
